{
  "source": "patent US9474775B2",
  "about": "“Compound, extract isolated from antrodia camphorate, and method using the same” (priority 2013, dated 2016)",
  "type_in_all_cases": "cell-based",
  "key": {"[1]": {"test_system": "PC3 cell line (prostate cancer)", "experiment": "MTT cell viability assay, PC3 cell line (prostate cancer)", "conditions": "Homo sapiens, PC-3, 48 hours, read-out: half maximal inhibitory concentration (IC50), PC3", "description": "(§1) Cell proliferation of A549 cell line (lung cancer), CT26 cell line (colon cancer), DU145 cell line (prostate cancer), HepG2 cell line (liver cancer), PC3 cell line (prostate cancer), MDA-MB-231 cell line (breast cancer) and MCF-7 cell line (breast cancer) was assessed by MTT cell viability assay.\n(§2) Above cell lines were cultured in determined medium for 24 hours. Proliferative cells were washed with PBS solution, treated with trpsin-EDTA (1×), centrifuged at 1,200 rpm for 5 min, precipitated the cells and discarded supernatant. The cells were resuspended with 10 ml of fresh medium, and then loaded to 96-well plate. While the assay initiated, 0.01˜200 μg/ml of Antrodia camphorata extract was added in each well, and the plate was incubated for 48 hours, at 37° C., 5% CO2. Each wall was added with 2.5 mg/ml MTT reagent in the dark. After 4 hours of reaction, 100 μl lysis buffer were added to each wall to terminate the reaction. […] The experiment data was represented by means±SD. All data was statistically analyzed by paired-t test, and a P-value less than 0.05 was considered significant."}, "[2]": {"test_system": "MCF-7 cell line (breast cancer)", "experiment": "MTT cell viability assay, MCF-7 cell line (breast cancer)", "conditions": "Homo sapiens, MCF7; MCF-7, MTT, 48 hours; read-out: half maximal inhibitory concentration (IC50), MCF-7", "description": "as §1, §2"}, "[3]": {"test_system": "A549 cell line (lung cancer)", "experiment": "MTT cell viability assay, A549 cell line (lung cancer)", "conditions": "Homo sapiens, 48 hours, read-out: half maximal inhibitory concentration (IC50), A549", "description": "as §1, §2"}, "[4]": {"test_system": "MDA-MB-231 cell line (breast cancer)", "experiment": "MTT cell viability assay, MDA-MB-231 cell line (breast cancer)", "conditions": "Homo sapiens; MDA-MB-231, MTT, 48 hours; read-out: half maximal inhibitory concentration (IC50), MDA-MB-231", "description": "as §1, §2"}, "[5]": {"test_system": "HepG2 cell line (liver cancer)", "experiment": "MTT cell viability assay, HepG2 cell line (liver cancer)", "conditions": "Homo sapiens, 48 hours, read-out: half maximal inhibitory concentration (IC50), HepG2", "description": "as §1, §2"}, "[6]": {"test_system": "DU145 cell line (prostate cancer)", "experiment": "MTT cell viability assay, DU145 cell line (prostate cancer)", "conditions": "Homo sapiens; DU-145, MTT, 48 hours; read-out: half maximal inhibitory concentration (IC50), DU-145", "description": "as §1, §2"}, "[7]": {"test_system": "CT26 cell line (colon cancer)", "experiment": "MTT cell viability assay, CT26 cell line (colon cancer)", "conditions": "Mus musculus, 48 hours, read-out: half maximal inhibitory concentration (IC50), CT26", "description": "as §1, §2"}, "[8]": {"experiment": "Solvent (DMSO) cytotoxicity, cell death", "conditions": "DMSO content of diluted drug; cell line not stated", "description": "The symbols used in tables respectively represent: 0-25% cell viability: +/−; 25˜50% cell viability: +; 50˜75% cell viability: ++, 75˜100% cell viability: +++, >100% cell viability: ++++. […] In this experiment, when the drug concentration was diluted to […], DMSO concentration was 0.5%."}},
  "data": [
    {"compound": "COC1=C(OC)[C@H](O)[C@H](C/C=C(\\C)CC/C=C(\\C)C/C=C/C(C)(C)O)[C@@H](C)C1=O", "note": "[Antrocamol LT3, (4R,5R,6R)-4-hydroxy-5-[(2E,6E,9E)-11-hydroxy-3,7,11-trimethyldodeca-2,6,9-trienyl]-2,3-dimethoxy-6-methylcyclohex-2-enone]", "values": [
      {"measurement": "IC50", "setting": "[1]", "value": "0.009 ± 0.001", "unit": "µg/mL"},
      {"measurement": "IC50", "setting": "[2]", "value": "0.1 ± 0.01", "unit": "µg/mL"},
      {"measurement": "IC50", "setting": "[3]", "value": "0.014 ± 0.002", "unit": "µg/mL"},
      {"measurement": "IC50", "setting": "[4]", "value": "1.01 ± 0.06", "unit": "µg/mL"},
      {"measurement": "IC50", "setting": "[5]", "value": "0.004 ± 0.001", "unit": "µg/mL"},
      {"measurement": "IC50", "setting": "[6]", "value": "0.07 ± 0.001", "unit": "µg/mL"},
      {"measurement": "IC50", "setting": "[7]", "value": "0.011 ± 0.001", "unit": "µg/mL"}
    ]},
    {"compound": "C[S+](C)[O-]", "note": "[DMSO]", "values": [
      {"measurement": "IC50 value of the solvent (50% cell death)", "setting": "[8]", "value": 2.34, "unit": "%"}
    ]}
  ]
}
